According to patent US20100190694A1, “Methods for identifying patients who will respond well to cancer treatment” (priority 2009, published 2010):

Tested on: advanced solid tumors
Experiment: Phase I study: efficacy by RECIST, treatment duration, TTP
Format: in vivo, human
Details: Pat 101-6, esophageal adenoca, before study
Excerpt: Phase I dose-escalation, multi-center study with the objectives to assess: • maximum tolerated dose and dose limiting toxicities (DLT) of Bel in combination with FU • impact of Bel on expression of TS, dihydropyrimidine dehydrogenase (DPD), and p21, in tumor and non-tumor surrogate tissue (peripheral blood mononuclear cells; PBMC) • preliminary anti-tumor activity of Bel in combination with FU • impact of Bel on ECG parameters • pharmacokinetics (PK) of Bel when given in combination with FU
Treatment cycles of 21 days included Bel alone in cycle 1, and Bel in combination with FU in all subsequent cycles (FIG. 4). Treatment was to continue until significant treatment-related toxicity or progressive disease. […]
DLTs, i.e. grade ¾ non-hematologic toxicities and grade 4 neutropenia or thrombocytopenia, were determined in cycles 1 and 2. Safety was assessed by NCI CTC (v. 3) and efficacy by RECIST criteria. Expression of TS, DPD, and p21 mRNA was measured by RTQ-PCR in PBMC (20 patients at baseline, and pre-dosing, 6 and 24-hours post-dosing, on days 1 and 4 in cycle 1) and in tumor biopsies (8 patients at baseline and once on days 4 or 5 in cycle 1). Results were expressed as gene expression relative to actin (i.e. TS/Actin Relative Gene Expression, DPD/Actin Relative Gene Expression, and p21/Actin Relative Gene Expression).

Compound: CC(=O)O[C@H]1C(=O)[C@@]2(C)[C@H]([C@H](OC(=O)c3ccccc3)[C@]3(O)C[C@H](OC(=O)[C@H](O)[C@@H](NC(=O)c4ccccc4)c4ccccc4)C(C)=C1C3(C)C)[C@]1(OC(C)=O)CO[C@@H]1C[C@@H]2O [paclitaxel]
- TTP on most recent prior line of therapy: (12.0 weeks)
